According to PubChem BioAssay AID1963975 (Molecular Pharmacology Branch, DTP, NCI, 2024):

Tested on: 624824-186-R-J2-PDC multicell spheroids, viability
Assay: Anticancer human tumor 624824-186-R-J2-PDC patient-derived colon adenocarcinoma cell line growth inhibition [PI3K]
Settings: for IC50: curve of first compound; for viability, T/C: stronger effect = lower value
Procedure, shortened: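 High-throughput combination screen: PI3K inhibitors crossed with targeted small molecules on complex spheroids of tumor cells, HUVEC and MSCs at 37 degrees C, 5% CO2. Top concentration was at or near clinical Cmax (otherwise 10 microM), with half-log decrements.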

[1] = second compound 0.0316 µM, first compound 0.0316 µM
[2] = second compound 0.0316 µM, first compound 0.1 µM
[3] = second compound 0.0316 µM, first compound 0.316 µM
[4] = second compound 0.0316 µM, first compound 1 µM
[5] = second compound 0.0316 µM, first compound 3.16 µM
[6] = second compound 0.0316 µM, first compound 10 µM
[7] = second compound 0.1 µM, first compound 0.0316 µM
[8] = second compound 0.1 µM, first compound 0.1 µM
[9] = second compound 0.1 µM, first compound 0.316 µM
[10] = second compound 0.1 µM, first compound 1 µM
[11] = second compound 0.1 µM, first compound 3.16 µM
[12] = second compound 0.1 µM, first compound 10 µM
[13] = second compound 0.316 µM, first compound 0.0316 µM
[14] = second compound 0.316 µM, first compound 0.1 µM
[15] = second compound 0.316 µM, first compound 0.316 µM
[16] = second compound 0.316 µM, first compound 1 µM
[17] = second compound 0.316 µM, first compound 3.16 µM
[18] = second compound 0.316 µM, first compound 10 µM
[19] = second compound 1 µM, first compound 0.0316 µM
[20] = second compound 1 µM, first compound 0.1 µM
[21] = second compound 1 µM, first compound 0.316 µM
[22] = second compound 1 µM, first compound 1 µM
[23] = second compound 1 µM, first compound 3.16 µM
[24] = second compound 1 µM, first compound 10 µM
[25] = second compound 3.16 µM, first compound 0.0316 µM
[26] = second compound 3.16 µM, first compound 0.1 µM
[27] = second compound 3.16 µM, first compound 0.316 µM
[28] = second compound 3.16 µM, first compound 1 µM
[29] = second compound 3.16 µM, first compound 3.16 µM
[30] = second compound 3.16 µM, first compound 10 µM
[31] = second compound 10 µM, first compound 0.0316 µM
[32] = second compound 10 µM, first compound 0.1 µM
[33] = second compound 10 µM, first compound 0.316 µM
[34] = second compound 10 µM, first compound 1 µM
[35] = second compound 10 µM, first compound 3.16 µM
[36] = second compound 10 µM, first compound 10 µM
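Also: spheroids exposed to agents for 7 days before viability read.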
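For viability, T/C in this document: 100% = DMSO vehicle treated spheroids.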

CC1(C)CCC(CN2CCN(c3ccc(C(=O)NS(=O)(=O)c4ccc(NCC5CCOCC5)c([N+](=O)[O-])c4)c(Oc4cnc5[nH]ccc5c4)c3)CC2)=C(c2ccc(Cl)cc2)C1 + CC(Nc1ncnc2nc[nH]c12)c1cc2cccc(Cl)c2c(=O)n1-c1ccccc1
IC50 (second compound 0.0316 µM): > 10 µM | IC50 (second compound 0.1 µM): > 10 µM | IC50 (second compound 0.316 µM): > 10 µM | IC50 (second compound 1 µM): > 10 µM | IC50 (second compound 3.16 µM): > 10 µM | IC50 (second compound 10 µM): > 10 µM | viability, T/C [1]: 89.4% | viability, T/C [2]: 98.6% | viability, T/C [3]: 77.3% | viability, T/C [4]: 81.7% | viability, T/C [5]: 71.6% | viability, T/C [6]: 58.4% | viability, T/C [7]: 103% | viability, T/C [8]: 90.7% | viability, T/C [9]: 91.1% | viability, T/C [10]: 67.6% | viability, T/C [11]: 67.2% | viability, T/C [12]: 58.2% | viability, T/C [13]: 88.3% | viability, T/C [14]: 90.7% | viability, T/C [15]: 68.4% | viability, T/C [16]: 79.2% | viability, T/C [17]: 63.1% | viability, T/C [18]: 79% | viability, T/C [19]: 86.3% | viability, T/C [20]: 92.3% | viability, T/C [21]: 80.2% | viability, T/C [22]: 66.5% | viability, T/C [23]: 77% | viability, T/C [24]: 80.4% | viability, T/C [25]: 88.5% | viability, T/C [26]: 106% | viability, T/C [27]: 73% | viability, T/C [28]: 78.9% | viability, T/C [29]: 86% | viability, T/C [30]: 106% | viability, T/C [31]: 103% | viability, T/C [32]: 102% | viability, T/C [33]: 108% | viability, T/C [34]: 82.2% | viability, T/C [35]: 92.2% | viability, T/C [36]: 87%

C[C@@H](NC(=O)c1ncnc(N)c1Cl)c1ncc(C(=O)Nc2cc(C(F)(F)F)c(Cl)cn2)s1 + CC(Nc1ncnc2nc[nH]c12)c1cc2cccc(Cl)c2c(=O)n1-c1ccccc1
IC50 (second compound 0.0316 µM): > 10 µM | IC50 (second compound 0.1 µM): > 10 µM | IC50 (second compound 0.316 µM): > 10 µM | IC50 (second compound 1 µM): > 10 µM | IC50 (second compound 3.16 µM): > 10 µM | IC50 (second compound 10 µM): > 10 µM | viability, T/C [1]: 94% | viability, T/C [2]: 106% | viability, T/C [3]: 78.6% | viability, T/C [4]: 69.9% | viability, T/C [5]: 55.4% | viability, T/C [6]: 67.2% | viability, T/C [7]: 85.3% | viability, T/C [8]: 82.3% | viability, T/C [9]: 81.1% | viability, T/C [10]: 67.7% | viability, T/C [11]: 57% | viability, T/C [12]: 56% | viability, T/C [13]: 100% | viability, T/C [14]: 99.3% | viability, T/C [15]: 89.8% | viability, T/C [16]: 65.4% | viability, T/C [17]: 55.9% | viability, T/C [18]: 58% | viability, T/C [19]: 110% | viability, T/C [20]: 85.6% | viability, T/C [21]: 87.3% | viability, T/C [22]: 63.1% | viability, T/C [23]: 55% | viability, T/C [24]: 54.1% | viability, T/C [25]: 94.5% | viability, T/C [26]: 93.9% | viability, T/C [27]: 65.4% | viability, T/C [28]: 65.6% | viability, T/C [29]: 54.7% | viability, T/C [30]: 59.6% | viability, T/C [31]: 95.9% | viability, T/C [32]: 92% | viability, T/C [33]: 99.9% | viability, T/C [34]: 77.2% | viability, T/C [35]: 65.7% | viability, T/C [36]: 57.8%

Cn1ncnc1[C@H]1c2n[nH]c(=O)c3cc(F)cc(c23)N[C@@H]1c1ccc(F)cc1 + CC(Nc1ncnc2nc[nH]c12)c1cc2cccc(Cl)c2c(=O)n1-c1ccccc1
IC50 (second compound 0.0316 µM): > 0.1 µM | IC50 (second compound 0.1 µM): > 0.1 µM | IC50 (second compound 0.316 µM): > 0.1 µM | IC50 (second compound 1 µM): > 0.1 µM | IC50 (second compound 3.16 µM): > 0.1 µM | IC50 (second compound 10 µM): > 0.1 µM | viability, T/C (second compound 0.0316 µM, first compound 0.000316 µM): 82.5% | viability, T/C (second compound 0.0316 µM, first compound 0.001 µM): 85.3% | viability, T/C (second compound 0.0316 µM, first compound 0.00316 µM): 87.6% | viability, T/C (second compound 0.0316 µM, first compound 0.01 µM): 89% | viability, T/C [1]: 75.7% | viability, T/C [2]: 86% | viability, T/C (second compound 0.1 µM, first compound 0.000316 µM): 94.6% | viability, T/C (second compound 0.1 µM, first compound 0.001 µM): 85% | viability, T/C (second compound 0.1 µM, first compound 0.00316 µM): 89.5% | viability, T/C (second compound 0.1 µM, first compound 0.01 µM): 94.1% | viability, T/C [7]: 82.8% | viability, T/C [8]: 103% | viability, T/C (second compound 0.316 µM, first compound 0.000316 µM): 115% | viability, T/C (second compound 0.316 µM, first compound 0.001 µM): 102% | viability, T/C (second compound 0.316 µM, first compound 0.00316 µM): 96.5% | viability, T/C (second compound 0.316 µM, first compound 0.01 µM): 87.5% | viability, T/C [13]: 110% | viability, T/C [14]: 86.2% | viability, T/C (second compound 1 µM, first compound 0.000316 µM): 72.6% | viability, T/C (second compound 1 µM, first compound 0.001 µM): 90.8% | viability, T/C (second compound 1 µM, first compound 0.00316 µM): 81.7% | viability, T/C (second compound 1 µM, first compound 0.01 µM): 89.4% | viability, T/C [19]: 81.4% | viability, T/C [20]: 97.8% | viability, T/C (second compound 3.16 µM, first compound 0.000316 µM): 91.1% | viability, T/C (second compound 3.16 µM, first compound 0.001 µM): 94% | viability, T/C (second compound 3.16 µM, first compound 0.00316 µM): 94.2% | viability, T/C (second compound 3.16 µM, first compound 0.01 µM): 92.1% | viability, T/C [25]: 83.5% | viability, T/C [26]: 78.1% | viability, T/C (second compound 10 µM, first compound 0.000316 µM): 88.5% | viability, T/C (second compound 10 µM, first compound 0.001 µM): 85.6% | viability, T/C (second compound 10 µM, first compound 0.00316 µM): 106% | viability, T/C (second compound 10 µM, first compound 0.01 µM): 106% | viability, T/C [31]: 100% | viability, T/C [32]: 88.4%
